Data reported in patent publication US20150018384A1, “TREATMENT FOR HIGH CHOLESTEROL” (FibroGen, Inc., priority 2012, published 2015).

Test system: Cholesterol Biosynthesis Genes in the Mouse Liver
Experiment: Microarray expression of cholesterol biosynthesis genes in mouse liver
Format: in vivo
Conditions: 10 mg/kg oral
Procedure: A number of PHI compounds were evaluated for their effect on the expression of cholesterol biosynthesis genes in mouse liver. […] Liver tissue was harvested and stored in RNALater (Life Technologies). Total RNA was isolated with Trizol (Life Technologies) and purified with RNEasy96 (Qiagen) according to the manufacturers' protocols. RNA concentration was measured by NanoDrop (Thermo), and quality was assessed by Bioanalyzer (Agilent).
Biotinylated microarray probe was prepared using the 3′IVT Express kit (Affymetrix) and hybridized to mouse 430A 2.0 arrays as recommended in the manufacturer's protocol. Arrays were stained, washed, and scanned using Affymetrix equipment and software. Three arrays were run for each treatment and time point, each representing the liver sample from one individual animal.
Animals were sacrificed 4 h or 8 h later. Each compound was tested in a separate animal study with separate controls. Liver tissue was harvested and stored in RNALater (Life Technologies). Total RNA was isolated with Trizol (Life Technologies) and purified with RNEasy96 (Qiagen) according to the manufacturers' protocols. RNA concentration was measured by NanoDrop (Thermo), and quality was assessed by Bioanalyzer (Agilent).
For microarray analysis, RNA from animals in each treatment group was pooled in pairs (n=3 pairs for 4 h vehicle, n=2 pairs for all other treatment groups, for a total of 13 arrays per compound study). This approach was used to improve the signal-to-noise ratio on microarrays. Biotinylated probe was prepared using the One-Cycle cDNA synthesis kit (Affymetrix) and hybridized to mouse 430A 2.0 arrays as recommended in the manufacturer's protocol. Arrays were stained, washed, and scanned using Affymetrix equipment and software.
Array quality was assessed with GeneChip Operating System and/or Command Console software (Affymetrix). CEL files were uploaded to GeneSpring 7.3.1 (Agilent) using GC-RMA baseline correction. Principal Components Analysis was used to identify and reject outlier arrays. Data are reported as fold-change compared to timepoint-matched vehicle controls from the same study. Values less than 1.0 indicate a reduction of RNA in the treated animal liver tissue.

SMILES	3-hydroxy-3-methylglutaryl-Coenzyme A reductase (Hmgcr) RNA expression (4 h) [fold-change]	3-hydroxy-3-methylglutaryl-Coenzyme A synthase 1 (Hmgcs1) RNA expression (4 h) [fold-change]	7-dehydrocholesterol reductase (Dhcr7) RNA expression (4 h) [fold-change]	NAD(P) dependent steroid dehydrogenase-like (Nsdhl) RNA expression (4 h) [fold-change]	acetyl-Coenzyme A acetyltransferase 2 (Acat2) RNA expression (4 h) [fold-change]	cytochrome P450, family 51 (Cyp51) RNA expression (4 h) [fold-change]	farnesyl diphosphate farnesyl transferase 1 (Fdft1) RNA expression (4 h) [fold-change]	farnesyl diphosphate synthetase (Fdps) RNA expression (4 h) [fold-change]	isopentenyl-diphosphate delta isomerase (Idi1) RNA expression (4 h) [fold-change]	lanosterol synthase (Lss) RNA expression (4 h) [fold-change]	mevalonate (diphospho) decarboxylase (Mvd) RNA expression (4 h) [fold-change]	mevalonate kinase (Mvk) RNA expression (4 h) [fold-change]	phosphomevalonate kinase (Pmvk) RNA expression (4 h) [fold-change]	squalene epoxidase (Sqle) RNA expression (4 h) [fold-change]	sterol-C4-methyl oxidase-like (Sc4mol) RNA expression (4 h) [fold-change]	sterol-C5-desaturase (fungal ERG3, delta-5-desaturase) homolog (S. cerevisae) (Sc5d) RNA expression (4 h) [fold-change]	3-hydroxy-3-methylglutaryl-Coenzyme A reductase (Hmgcr) RNA expression (8 h) [fold-change]	3-hydroxy-3-methylglutaryl-Coenzyme A synthase 1 (Hmgcs1) RNA expression (8 h) [fold-change]	7-dehydrocholesterol reductase (Dhcr7) RNA expression (8 h) [fold-change]	NAD(P) dependent steroid dehydrogenase-like (Nsdhl) RNA expression (8 h) [fold-change]	also measured
Cc1cccc(C)c1Oc1ccc2c(O)c(C(=O)NCC(=O)O)nc(C#N)c2c1 [Compound I, {[1-Cyano-7-(2,6-dimethyl-phenoxy)-4-hydroxy-isoquinoline-3-carbonyl]-amino}-acetic acid]	0.41	1.43	1.41	1.66	1.21	0.81	0.85	1.45	1.40	0.74	0.45	1.02	1.25	1.36	0.88	0.87	0.17	0.19	0.30	0.21	acetyl-Coenzyme A acetyltransferase 2 (Acat2) RNA expression (8 h): 0.43 fold-change; cytochrome P450, family 51 (Cyp51) RNA expression (8 h): 0.12 fold-change; farnesyl diphosphate farnesyl transferase 1 (Fdft1) RNA expression (8 h): 0.32 fold-change; farnesyl diphosphate synthetase (Fdps) RNA expression (8 h): 0.16 fold-change; isopentenyl-diphosphate delta isomerase (Idi1) RNA expression (8 h): 0.12 fold-change; lanosterol synthase (Lss) RNA expression (8 h): 0.28 fold-change; mevalonate (diphospho) decarboxylase (Mvd) RNA expression (8 h): 0.19 fold-change; mevalonate kinase (Mvk) RNA expression (8 h): 0.37 fold-change; phosphomevalonate kinase (Pmvk) RNA expression (8 h): 0.41 fold-change; squalene epoxidase (Sqle) RNA expression (8 h): 0.16 fold-change; sterol-C4-methyl oxidase-like (Sc4mol) RNA expression (8 h): 0.11 fold-change; sterol-C5-desaturase (fungal ERG3, delta-5-desaturase) homolog (S. cerevisae) (Sc5d) RNA expression (8 h): 0.54 fold-change
N#Cc1nc(C(=O)NCC(=O)O)c(O)c2ccn(Cc3ccc4ccccc4c3)c12 [Compound J, [(7-Cyano-4-hydroxy-1-naphthalen-2-ylmethyl-1H-pyrrolo[2,3-c]pyridine-5-carbonyl)-amino]-acetic acid]	0.38	0.28	0.52	0.42	0.58	0.38	0.70	0.38	0.25	0.77	0.72	0.79	0.59	0.26	0.27	1.22	0.43	0.92	0.94	1.03	acetyl-Coenzyme A acetyltransferase 2 (Acat2) RNA expression (8 h): 0.91 fold-change; cytochrome P450, family 51 (Cyp51) RNA expression (8 h): 0.80 fold-change; farnesyl diphosphate farnesyl transferase 1 (Fdft1) RNA expression (8 h): 0.66 fold-change; farnesyl diphosphate synthetase (Fdps) RNA expression (8 h): 0.66 fold-change; isopentenyl-diphosphate delta isomerase (Idi1) RNA expression (8 h): 0.70 fold-change; lanosterol synthase (Lss) RNA expression (8 h): 0.76 fold-change; mevalonate (diphospho) decarboxylase (Mvd) RNA expression (8 h): 0.83 fold-change; mevalonate kinase (Mvk) RNA expression (8 h): 0.79 fold-change; phosphomevalonate kinase (Pmvk) RNA expression (8 h): 0.84 fold-change; squalene epoxidase (Sqle) RNA expression (8 h): 1.03 fold-change; sterol-C4-methyl oxidase-like (Sc4mol) RNA expression (8 h): 0.52 fold-change; sterol-C5-desaturase (fungal ERG3, delta-5-desaturase) homolog (S. cerevisae) (Sc5d) RNA expression (8 h): 0.81 fold-change
